Experimental data reported in ChEMBL document CHEMBL1139552, “Naphthamidine urokinase plasminogen activator inhibitors with improved pharmacokinetic properties” (Bioorg Med Chem Lett, 2005).
pKi: −log10 of the molar value.

Experiments:
Trypsin = Trypsin (Sus scrofa, UniProt P00761); experiment: Binding affinity value against trypsin
[1] = Binding affinity value against thrombin
[2] = Area under the curve time curve value in sprague dawley rat was determined at a dosage of 3 mg/kg; assay type: ADME, organism-based; set-up: dose 3 mg/kg; conditions: in vivo
[3] = Terminal half life value in sprague dawley rat was determined at a dosage of 3 mg/kg; assay type: ADME, organism-based; set-up: dose 3 mg/kg; conditions: in vivo
[4] = Bioavailability in rat (Sprague-Dawley) (dose 10 mg/kg); assay type: ADME, organism-based; conditions: in vivo
[5] = Volume distribution value in sprague dawley rat was determined at a dosage of 3 mg/kg; assay type: ADME, organism-based; set-up: dose 3 mg/kg; conditions: in vivo
[6] = target: Urokinase-type plasminogen activator (Homo sapiens, UniProt P00749)
Description: Binding affinity value against urokinase plasminogen activator

in vivo [7] = conditions: Sprague-Dawley, rat, 3 mg/kg
Description: (§1) Clearance value in sprague dawley rat was determined at a dosage of 3 mg/kg

[8] = rat, in vivo, 3 mg/kg
Description: as §1

Plasminogen = Plasminogen (Homo sapiens, UniProt P00747); experiment: Binding affinity value against plasmin
Sequence of Plasminogen (P00747 97-580 limits assumed): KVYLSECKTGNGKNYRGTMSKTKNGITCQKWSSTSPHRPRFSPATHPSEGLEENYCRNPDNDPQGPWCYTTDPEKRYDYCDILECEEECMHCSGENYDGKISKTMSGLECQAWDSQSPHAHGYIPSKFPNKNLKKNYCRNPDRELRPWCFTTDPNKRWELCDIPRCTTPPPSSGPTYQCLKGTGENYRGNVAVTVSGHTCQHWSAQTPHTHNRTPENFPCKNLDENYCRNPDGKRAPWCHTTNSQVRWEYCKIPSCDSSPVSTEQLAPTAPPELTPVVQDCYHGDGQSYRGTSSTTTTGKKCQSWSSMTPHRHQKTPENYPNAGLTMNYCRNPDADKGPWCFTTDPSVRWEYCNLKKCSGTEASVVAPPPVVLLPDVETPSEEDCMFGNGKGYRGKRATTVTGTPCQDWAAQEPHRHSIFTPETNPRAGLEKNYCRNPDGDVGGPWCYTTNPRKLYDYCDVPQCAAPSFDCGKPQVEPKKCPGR
Sequence of Plasminogen (P00747 581-810 limits assumed): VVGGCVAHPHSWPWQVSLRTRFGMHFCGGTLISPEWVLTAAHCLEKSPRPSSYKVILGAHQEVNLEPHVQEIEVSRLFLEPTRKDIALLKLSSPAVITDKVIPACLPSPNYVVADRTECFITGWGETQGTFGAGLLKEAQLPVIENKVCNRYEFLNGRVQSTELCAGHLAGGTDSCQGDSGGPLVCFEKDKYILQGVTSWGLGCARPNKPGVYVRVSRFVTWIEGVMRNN

[9] = target: Tissue-type plasminogen activator (Homo sapiens, UniProt P00750); experiment: Binding affinity value against Tissue plasminogen activator
Sequence of Tissue-type plasminogen activator (P00750 whole entry): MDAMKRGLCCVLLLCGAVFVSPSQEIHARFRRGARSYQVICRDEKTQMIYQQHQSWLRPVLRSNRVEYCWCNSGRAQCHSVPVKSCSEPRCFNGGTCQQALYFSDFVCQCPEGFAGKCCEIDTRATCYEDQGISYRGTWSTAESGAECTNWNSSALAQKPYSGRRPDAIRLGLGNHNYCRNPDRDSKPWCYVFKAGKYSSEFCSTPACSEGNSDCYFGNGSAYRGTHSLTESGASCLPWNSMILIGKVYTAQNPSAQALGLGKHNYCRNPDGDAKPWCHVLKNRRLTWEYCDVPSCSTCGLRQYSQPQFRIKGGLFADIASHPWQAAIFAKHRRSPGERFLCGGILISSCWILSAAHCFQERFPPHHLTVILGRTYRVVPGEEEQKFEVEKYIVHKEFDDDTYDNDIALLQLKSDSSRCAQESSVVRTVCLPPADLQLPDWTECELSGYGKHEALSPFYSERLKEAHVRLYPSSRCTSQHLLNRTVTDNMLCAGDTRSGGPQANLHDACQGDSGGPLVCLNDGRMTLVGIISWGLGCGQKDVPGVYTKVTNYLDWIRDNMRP

Kallikrein-1 = Kallikrein-1 (Homo sapiens, UniProt P06870)
Sequence of Kallikrein-1 (P06870 whole entry): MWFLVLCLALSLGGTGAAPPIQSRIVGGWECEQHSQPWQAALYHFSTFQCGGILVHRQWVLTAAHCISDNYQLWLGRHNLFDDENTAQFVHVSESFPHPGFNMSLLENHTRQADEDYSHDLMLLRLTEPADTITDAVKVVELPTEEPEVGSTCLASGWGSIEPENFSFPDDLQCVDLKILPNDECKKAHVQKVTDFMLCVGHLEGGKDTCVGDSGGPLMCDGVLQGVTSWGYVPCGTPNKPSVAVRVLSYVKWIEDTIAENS
Description: Binding affinity value against kallikrein

[10] = Bioavailability in sprague dawley rat was determined at a dosage of 3 mg/kg; NT means not tested; assay type: ADME, organism-based; conditions: in vivo
[11] = Area under the curve time curve value in sprague dawley rat was determined at a intravenous dosage of 10 mg/kg; assay type: ADME, organism-based; set-up: dose 10 mg/kg, route intravenous; conditions: in vivo
[12] = Volume distribution value in sprague dawley rat was determined at a intravenous dosage of 10 mg/kg; assay type: ADME, organism-based; set-up: dose 10 mg/kg, route intravenous; conditions: in vivo
in vivo [13] = conditions: Sprague-Dawley, rat, iv, 10 mg/kg
Description: Clearance value in sprague dawley rat was determined at a intravenous dosage of 10 mg/kg

[14] = Terminal half life value in sprague dawley rat was determined at a intravenous dosage of 10 mg/kg; assay type: ADME, organism-based; set-up: dose 10 mg/kg, route intravenous; conditions: in vivo

Sequence of Trypsin (P00761 whole entry): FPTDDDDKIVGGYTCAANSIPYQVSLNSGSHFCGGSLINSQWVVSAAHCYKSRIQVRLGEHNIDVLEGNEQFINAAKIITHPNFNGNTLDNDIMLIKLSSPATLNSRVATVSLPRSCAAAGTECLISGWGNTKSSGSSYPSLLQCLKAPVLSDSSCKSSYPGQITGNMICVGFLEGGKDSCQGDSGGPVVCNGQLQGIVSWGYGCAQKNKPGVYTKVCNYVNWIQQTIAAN

Compound | pKi (Trypsin) | pKi [1] | AUC ([2]; Sprague-Dawley, read-out: AUC) [µM·h] | half-life [3] [h] | bioavailability [4] [%] | Vd [5] [L/kg] | pKi [6] | clearance (in vivo [7]) [mL/min/kg] | AUC [2] [µM·h] | CI [8] [mL/min/kg] | pKi (Plasminogen) | pKi [9] | pKi (Kallikrein-1) | CI ([8]; Sprague-Dawley) [mL/min/kg] | AUC [10] [µM·h] | AUC [11] [µM·h] | Vd [12] [L/kg] | clearance (in vivo [13]) [mL/min/kg] | half-life [14] [h]
N=C(N)c1ccc2cc(C(=O)Nc3ccccc3)cc(Nc3ncccn3)c2c1 | 7.40 | 6.77 | 0.14 | 0.6 | 0 | 37.1 | 6.70 | 715 |  |  |  |  |  |  |  |  |  |  | 
N=C(N)c1ccc2cc(C(=O)Nc3ccccc3)ccc2c1 | 6.49 | 5.25 |  | 2.1 | 3 | 8.5 |  |  | 8.2 | 46.7 |  |  |  |  |  |  |  |  | 
CC(C)C1=NCCc2ccc(C3CC3c3ccc4cc(C(=N)N)ccc4c3)cc21 (stereo not drawn) | 7.28 | 5.67 | 0.51 | 1.33 | 26 | 18.6 |  | 161 |  |  | 5.98 | 5.32 | 6.28 |  |  |  |  |  | 
N=C(N)c1ccc2cc(CCc3ccccc3)cc(Nc3ncccn3)c2c1 | 6.78 | 6.72 |  | 2 | 0 | 13.6 |  |  | 4.2 |  | 6.24 | 5.24 | 6.81 | 78.3 |  |  |  |  | 
N=C(N)c1ccc2cc(C3CC3c3ccccc3)cc(Br)c2c1 (stereo not drawn) | 6.48 | 6.30 | 2.72 | 4.71 | 17 | 14.3 | 6.21 | 35 |  |  | 6.62 | 4.51 | 6.42 |  |  |  |  |  | 
CN1CCc2ccc(C3CC3c3ccc4cc(C(=N)N)ccc4c3)cc2C1C(C)(C)C (stereo not drawn) |  |  |  |  |  |  | 6.26 |  |  |  |  |  |  |  |  |  |  |  | 
N=C(N)c1ccc2cc(C(=O)Nc3ccccc3)cc(Br)c2c1 | 7.19 | 5.58 |  | 1.05 | 0 | 18.7 | 6.55 | 205 |  |  | 5.99 | 5.25 | 6.00 |  | 0.6 |  |  |  | 
N=C(N)c1ccc2cc(C3CC3c3ccc4c(c3)C(C3CCCCC3)=NCC4)ccc2c1 (stereo not drawn) | 6.37 | 5.94 | 0.57 | 0.27 | 22 | 4.5 |  | 192 |  |  | 6.23 | 5.40 | 6.69 |  |  |  |  |  | 
CC(C)Oc1cccc(C2CC2c2ccc3cc(C(=N)N)ccc3c2)c1 (stereo not drawn) | 6.85 | 5.96 | 3.48 | 5.91 | 23 | 19.3 |  | 37.7 |  |  | 5.61 | 4.66 | 5.85 |  |  |  |  |  | 
N=C(N)c1ccc2cc(CCc3ccccc3)cc(Br)c2c1 |  |  | 1.75 | 3.3 | > 32 | 18 |  | 63.3 |  |  |  |  |  |  |  |  |  |  | 
N=C(N)c1ccc2cc(C3CC3c3ccc4c(c3)C(c3ccccc3)=NCC4)ccc2c1 (stereo not drawn) | 6.78 | 5.67 |  |  |  |  |  |  |  |  | 6.02 | 5.15 | 6.47 |  |  |  |  |  | 
N=C(N)c1ccc2cc(CCc3ccccc3)cc(-c3ccoc3)c2c1 |  |  |  |  | 18 | 1.53 | 6.14 |  | 17.6 |  |  |  |  | 55.2 |  |  |  |  | 
CN1CCc2ccc(C3CC3c3ccc4cc(C(=N)N)ccc4c3)cc2C1C1CCCCC1 (stereo not drawn) | 7.51 | 6.00 | 0.53 | 1.53 | 27 | 18.7 |  | 142 |  |  | 6.09 | 4.72 | 6.53 |  |  |  |  |  | 
N=C(N)c1ccc2cc(C3CC3c3ccccc3)cc(Nc3ncccn3)c2c1 (stereo not drawn) | 7.27 | 7.32 | 0.23 | 0.33 | 0 | 10 | 8.30 | 352 |  |  | 6.61 | 5.30 | 7.27 |  |  |  |  |  | 
CC(C)C1=NCCc2ccc([C@H]3CC3c3ccc4cc(C(=N)N)ccc4c3)cc21 (stereo partly drawn) | 7.52 | 5.75 |  |  |  |  |  |  |  |  | 5.83 | 4.98 | 6.19 |  |  |  |  |  | 
N=C(N)c1ccc2cc(C3CC3c3ccccc3)cc(-c3ccoc3)c2c1 (stereo not drawn) |  |  |  |  | 10 | 2.4 |  |  | 14.5 |  |  |  |  | 70 |  |  |  |  | 
CC(C)C1=NCCc2cc(C3CC3c3ccc4cc(C(=N)N)ccc4c3)ccc21 (stereo not drawn) |  |  |  | 0.33 | 0 |  |  |  |  |  |  |  |  |  |  | 0.27 | 7.9 | 273 | 
N=C(N)c1ccc2cc(CCc3ccccc3)ccc2c1 |  |  | 1.14 | 1 | 60 | 9.8 | 5.50 | 113 |  |  |  |  |  |  |  |  |  |  | 
N=C(N)c1ccc2cc(/C=C/c3ccccc3)ccc2c1 | 6.46 | 5.28 |  |  |  |  |  |  |  |  |  | 4.46 | 6.00 |  |  |  |  |  | 
CC(C)C1c2cc(C3CC3c3ccc4cc(C(=N)N)ccc4c3)ccc2CCN1C (stereo not drawn) | 7.05 | 5.75 | 0.37 | 0.55 | 55 | 10.3 |  | 216 |  |  | 5.89 | 5.21 | 6.24 |  |  |  |  |  | 
N=C(N)c1ccc2cc(C(=O)Nc3ccccc3)cc(-c3ccoc3)c2c1 | 7.35 | 6.88 |  | 3 | 0 | 21.7 |  |  | 5 | 83 |  |  |  |  |  |  |  |  | 
N=C(N)c1ccc2cc(/C=C/c3ccccc3)cc(-c3ccoc3)c2c1 | 7.02 | 6.63 |  | 0.62 | 0 |  | 6.77 | 21.7 |  |  | 6.87 | 5.35 | 7.08 |  |  | 5.8 | 1.2 |  | 
N=C(N)c1ccc2cc(/C=C/c3ccccc3)cc(Br)c2c1 | 6.32 | 6.04 |  |  |  |  | 6.09 |  |  |  | 5.87 | 4.87 | 6.11 |  |  |  |  |  | 
N=C(N)c1ccc2cc(/C=C/c3ccccc3)cc(Nc3ncccn3)c2c1 | 7.08 | 6.40 |  |  |  |  | 8.00 |  |  |  | 6.56 | < 4.30 | 7.38 |  |  |  |  |  | 
CC1c2cc(C3CC3c3ccc4cc(C(=N)N)ccc4c3)ccc2CCN1C (stereo not drawn) |  |  | 0.69 | 0.28 | 0 | 2.9 |  | 121 |  |  |  |  |  |  |  |  |  |  | 
N=C(N)c1ccc2cc(C3CC3c3ccccc3)ccc2c1 (stereo not drawn) | 6.14 | 5.72 |  |  | 30 | 23 |  |  | 11.6 | 36 | 5.45 | 4.16 | 5.61 |  |  |  |  |  | 7.4
